Laboratory results reported in patent US12378234B2, “Crystalline polymorphs of a 1-thiazol-2-yl-pyrazole-5-carboxylic acid derivative” (Bantam Pharmaceutical, LLC, priority 2019, dated 2025).

Assays:
Assay type in all cases: physicochemical
[1] = Form stability on drying, checked by XRPD; details: for form stability upon drying under ambient condition (XRPD): solids isolated from slurry; for change to the polymorph during drying (XRPD): wet solids vacuum-dried at 50° C. for 2 hours
Method: Crystalline polymorph Form 1 (20 mg) was suspended in 0.2-0.9 mL of methyl tert-butyl ether (MTBE). The resulting slurry was stirred at room temperature for 4 days, after which the remaining solids were isolated and subjected to XRPD.
Crystalline polymorph Form 1 (20 mg) was suspended in 0.2-0.9 mL of tetrahydrofurane:H2O (1:9 v:v). The resulting slurry was stirred at room temperature for 4 days, after which the remaining solids were isolated and subjected to XRPD.
A solution of crystalline polymorph Form 1 (20 mg in 0.3 mL) was mixed with 0.3 mL a solution of KOH in ethyl acetate (1:1 molar ratio of KOH:Form 1), and then stirred for 2 to 5 days at room temperature. The solids were isolated and subjected to XRPD. The wet solids were also vacuum-dried at 50° C. for 2 hours, and then subjected to XRPD. […] This crystalline polymorph was also characterized by TGA, DSC, and PLM. […] Based on the results, Form 9 was considered to be a hydrate or a solvate.
X-Ray Powder Diffraction was obtained by standard techniques using Panalytical X'Pert3 Powder XRPD on a Si zero-background holder operating with a Cu Kα radiation source at 45 kV, 40 mA (Kα1 (Å): 1.540598, Kα2 (Å): 1.544426, Kα2/Kα1 intensity ratio: 0.50). The 2θ position was calibrated against Panalytical Si reference standard disc. The scanning parameters ranged from 3 to 40° 2θ (±0.0131°) and a continuous scan at a rate of about 0.04° 2θ/minute.

[2] = Solubility of crystalline polymorph in biologically relevant media (water, SGF, FaSSIF, FeSSIF), HPLC of supernatant, pH, XRPD of remaining solids; details: for solubility at 1 h / solubility at 4 h / solubility at 24 h: thermodynamic from solid, 37° C.; for pH: solubility test
Method: The solubility of crystalline polymorph Form 1 was tested in biologically relevant media: water, simulated gastric fluid (SGF), fasted state simulated intestinal fluid (FaSSIF) and fed state simulated intestinal fluid (FeSSIF). For example, the crystalline polymorph was suspended in the solvent with stirring at 400 rpm at 37° C. for 1 h, 4 h and 24 h followed by filtration. The supernatant concentration was measured by HPLC (Mobile phase A: 0.1% NH3 in H2O, Mobile phase B: acetonitrile; flow rate: 0.8 mL/min; injection volume: 5 μL). The remaining solids were tested by XRPD.
The solubility of crystalline polymorph Form 11 was tested in biologically relevant media: water, SGF, FaSSIF, and FeSSIF. For example, the crystalline polymorph was suspended in the solvent with stirring at 400 rpm at 37° C. for 1 h, 4 h and 24 h followed by filtration. The supernatant was measured by HPLC for concentration and the remaining solids were tested by XRPD.

[3] = Slurry conversion (competitive) experiments for thermodynamic stability relationship; details: for pH of solution: 2.5 mg in 1 mL of 4% dichloromethane
Method: To determine the thermodynamic stability relationship between Form 1 and Form 5, slurry conversion experiments were conducted. Specifically, Form 1 sample was added to 1.0 mL H2O:acetone (9:1 v:v) or 0.8 mL of H2O:ethanol (3:1 v:v) at room temperature. After equilibrium for 1 hr, the suspensions were filtered to obtain a saturated solution Form 1. To each saturated solution of Form 1:Form 5 (1:1) was added. After stirring at room temperature for 2 or 3 days, the solids were isolated for XRPD analysis.
To determine the thermodynamic stability relationship between Form 11 and Form 12, slurry conversion experiments were conducted. Specifically, Form 12 (2.5 mg) was added to 1.0 mL of 4% dichloromethane at room temperature. After equilibrium for 1 hour, the suspensions were filtered to obtain a saturated solution Form 12. To the saturated solution of Form 11:Form 12 (1:1) was added. After stirring at room temperature for 30 minutes, the solids were isolated for XRPD analysis. […] The pH of Form 11 solution (2.5 mg in 1 mL of 4% dichloromethane) and Form 12 solution (2.5 mg in 1 mL of 4% dichloromethane) was measured to be 8.25 and 7.98, respectively.

In the case of Cc1nn(-c2nc(C3=CCC(C(F)(F)F)CC3)c(SC(C)C)s2)c(C(=O)O)c1-c1cccc(F)c1 (centres unmarked) [Form 2, 4-(3-fluorophenyl)-1-(5-(isopropylthio)-4-(4-(trifluoromethyl)cyclohex-1-en-1-yl)thiazol-2-yl)-3-methyl-1H-pyrazole-5-carboxylic acid], the “form stability upon drying under ambient condition (XRPD)” value [1] is reported as “metastable and partially converted to Form 1”.

For Cc1nn(-c2nc(C3=CCC(C(F)(F)F)CC3)c(SC(C)C)s2)c(C(=O)O)c1-c1cccc(F)c1 (centres unmarked) [Form 8, 4-(3-fluorophenyl)-1-(5-(isopropylthio)-4-(4-(trifluoromethyl)cyclohex-1-en-1-yl)thiazol-2-yl)-3-methyl-1H-pyrazole-5-carboxylic acid], the “form stability upon drying under ambient condition (XRPD)” value [1] was “metastable and partially converted to Form 1”.

For Cc1nn(-c2nc(C3=CCC(C(F)(F)F)CC3)c(SC(C)C)s2)c(C(=O)[O-])c1-c1cccc(F)c1.[K+] (centres unmarked) [Form 9, potassium 4-(3-fluorophenyl)-1-(5-(isopropylthio)-4-(4-(trifluoromethyl)cyclohex-1-en-1-yl)thiazol-2-yl)-3-methyl-1H-pyrazole-5-carboxylate], the “change to the polymorph during drying (XRPD)” value (from here on “change … (XRPD)”) [1] was “no change to the polymorph was observed”.

In the case of Cc1nn(-c2nc(C3=CCC(C(F)(F)F)CC3)c(SC(C)C)s2)c(C(=O)[O-])c1-c1cccc(F)c1.[K+] (centres unmarked) [Form 10, potassium 4-(3-fluorophenyl)-1-(5-(isopropylthio)-4-(4-(trifluoromethyl)cyclohex-1-en-1-yl)thiazol-2-yl)-3-methyl-1H-pyrazole-5-carboxylate], the “change … (XRPD)” value [1] is reported as “no change to the polymorph was observed”.

For Cc1nn(-c2nc(C3=CCC(C(F)(F)F)CC3)c(SC(C)C)s2)c(C(=O)[O-])c1-c1cccc(F)c1.[Na+] (centres unmarked) [Form 11, sodium 4-(3-fluorophenyl)-1-(5-(isopropylthio)-4-(4-(trifluoromethyl)cyclohex-1-en-1-yl)thiazol-2-yl)-3-methyl-1H-pyrazole-5-carboxylate], the “Form change by XRPD of remaining solids” value ([2]; after solubility test in FaSSIF) was “no form change was observed”, the “Form change by XRPD of remaining solids” value ([2]; after solubility test in FeSSIF) was “converted to Form 1” and the “Form change by XRPD of remaining solids” value ([2]; after solubility test in SGF) was “converted to Form 1”. The “Form change by XRPD of remaining solids” value ([2]; after solubility test in water) was “no form change was observed”, the solubility at 1 h ([2]; fasted state simulated intestinal fluid (FaSSIF), FaSSIF, 1 hr) was 100 µg/mL and the solubility at 4 h ([2]; fasted state simulated intestinal fluid (FaSSIF), FaSSIF, 4 hr) was 100 µg/mL. It also gave a solubility at 24 h ([2]; fasted state simulated intestinal fluid (FaSSIF), FaSSIF, 24 hr) of 200 µg/mL, a solubility at 1 h ([2]; fed state simulated intestinal fluid (FeSSIF), FeSSIF, 1 hr) of 200 µg/mL and a solubility at 4 h ([2]; fed state simulated intestinal fluid (FeSSIF), FeSSIF, 4 hr) of 300 µg/mL. It also gave a solubility at 24 h ([2]; fed state simulated intestinal fluid (FeSSIF), FeSSIF, 24 hr) of 400 µg/mL, a solubility at 1 h ([2]; simulated gastric fluid (SGF), simulated gastric fluid, SGF, 1 hr) of 40 µg/mL and a solubility at 4 h ([2]; simulated gastric fluid (SGF), simulated gastric fluid, SGF, 4 hr) of 100 µg/mL. It also gave a solubility at 24 h ([2]; simulated gastric fluid (SGF), simulated gastric fluid, SGF, 24 hr) of 300 µg/mL, a pH ([2]; FaSSIF, 1 hr) of 6.48 and a pH ([2]; FaSSIF, 4 hr) of 6.45. For the same compound, the pH ([2]; FaSSIF, 24 hr) was 6.56, the pH ([2]; FeSSIF, 1 hr) was 5.19 and the pH ([2]; FeSSIF, 4 hr) was 5.28. For the same compound, the pH ([2]; FeSSIF, 24 hr) was 5.32, the pH ([2]; H2O, 1 hr) was 9.67 and the pH ([2]; H2O, 4 hr) was 9.31. The pH ([2]; H2O, 24 hr) was 9.17, the pH ([2]; SGF, 1 hr) was 2.12 and the pH ([2]; SGF, 4 hr) was 2.55. For the same compound, the pH ([2]; SGF, 24 hr) was 6.81, the solubility at 1 h ([2]; water, H2O, 1 hr) was 1400 µg/mL and the solubility at 4 h ([2]; water, H2O, 4 hr) was 1300 µg/mL. The solubility at 24 h ([2]; water, H2O, 24 hr) was 1200 µg/mL, the pH of solution [3] was 8.25 and the “thermodynamic stability relationship between Form 11 and Form 12” value ([3]; slurry of Form 11:Form 12 (1:1) in 4% dichloromethane, room temperature, 30 minutes) was “more thermodynamically stable than Form 12”. The “change … (XRPD)” value [1] was “no change to the polymorph was observed”.

In the case of Cc1nn(-c2nc(C3=CCC(C(F)(F)F)CC3)c(SC(C)C)s2)c(C(=O)[O-])c1-c1cccc(F)c1.[Na+] (centres unmarked) [Form 12, sodium 4-(3-fluorophenyl)-1-(5-(isopropylthio)-4-(4-(trifluoromethyl)cyclohex-1-en-1-yl)thiazol-2-yl)-3-methyl-1H-pyrazole-5-carboxylate], the pH of solution [3] is reported as 7.98 and the “change … (XRPD)” value [1] is reported as “no change to the polymorph was observed”.

For Cc1nn(-c2nc(C3=CCC(C(F)(F)F)CC3)c(SC(C)C)s2)c(C(=O)O)c1-c1cccc(F)c1.N=C(N)NCCCC(N)C(=O)O [Form 13, L-arginine 4-(3-fluorophenyl)-1-(5-(isopropylthio)-4-(4-(trifluoromethyl)cyclohex-1-en-1-yl)thiazol-2-yl)-3-methyl-1H-pyrazole-5-carboxylate], the “change … (XRPD)” value [1] was “no change to the polymorph was observed”.

In the case of Cc1nn(-c2nc(C3=CCC(C(F)(F)F)CC3)c(SC(C)C)s2)c(C(=O)O)c1-c1cccc(F)c1.NC(N)=O (centres unmarked) [Form 15, urea 4-(3-fluorophenyl)-1-(5-(isopropylthio)-4-(4-(trifluoromethyl)cyclohex-1-en-1-yl)thiazol-2-yl)-3-methyl-1H-pyrazole-5-carboxylate], the “change … (XRPD)” value [1] is reported as “no change to the polymorph was observed”.

In the case of Cc1nn(-c2nc(C3=CCC(C(F)(F)F)CC3)c(SC(C)C)s2)c(C(=O)O)c1-c1cccc(F)c1.O=C(O)C1CCCN1 [Form 16, L-proline 4-(3-fluorophenyl)-1-(5-(isopropylthio)-4-(4-(trifluoromethyl)cyclohex-1-en-1-yl)thiazol-2-yl)-3-methyl-1H-pyrazole-5-carboxylate], the “change … (XRPD)” value [1] is reported as “no change to the polymorph was observed”.

For “magnesium 4-(3-fluorophenyl)-1-(5-(isopropylthio)-4-(4-(trifluoromethyl)cyclohex-1-en-1-yl)thiazol-2-yl)-3-methyl-1H-pyrazole-5-carboxylate [Form 14]”, the “change … (XRPD)” value [1] was “no change to the polymorph was observed”.
